Results from US9951063B2, “8-(piperazin-1-yl)-1,2,3,4-tetrahydro-isoquinoline derivatives” (IDORSIA PHARMACEUTICALS LTD, priority 2014, dated 2018).

target: human CXCR3A (Homo sapiens (Human), UniProt P49682); assay: FLIPR assay (inhibition of CXCL10-induced calcium signal); format: cell-based; conditions: engineered CHO-K1 cells expressing human CXCR3A coupled to Galpha(16); Fluo-4-AM; CXCL10 agonist 20 nM; mean values where determined several times
In short: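 CHO-K1 cells expressing human CXCR3A coupled to Gα16 were loaded with Fluo-4-AM for 1 h in HBSS/20 mM Hepes pH 7.4 with probenecid. Compound was added, then CXCL10 (20 nM as dispensed). Baseline-subtracted peak fluorescence gave inhibition curves and IC50, averaged over repeats.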

Chain of human CXCR3A (P49682 whole entry): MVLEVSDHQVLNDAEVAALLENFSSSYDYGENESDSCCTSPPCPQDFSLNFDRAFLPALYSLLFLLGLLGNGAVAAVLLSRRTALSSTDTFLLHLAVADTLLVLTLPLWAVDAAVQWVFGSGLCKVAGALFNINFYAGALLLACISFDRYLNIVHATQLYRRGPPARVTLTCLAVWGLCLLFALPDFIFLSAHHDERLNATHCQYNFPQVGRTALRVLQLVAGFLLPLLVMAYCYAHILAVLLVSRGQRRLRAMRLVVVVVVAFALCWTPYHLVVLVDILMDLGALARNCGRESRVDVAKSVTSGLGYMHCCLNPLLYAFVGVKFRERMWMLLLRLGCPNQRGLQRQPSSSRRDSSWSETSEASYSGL

Structure (SMILES)	IC50 [nM]
C[C@@H]1CN(c2cccc3c2CN(c2ccc(F)cc2)CC3)CCN1C(=O)Cn1cnc2cccnc21 [Example 99, 1-{(R)-4-[2-(4-Fluoro-phenyl)-1,2,3,4-tetrahydro-isoquinolin-8-yl]-2-methyl-piperazin-1-yl}-2-imidazo[4,5-b]pyridin-3-yl-ethanone]	8.3
C[C@@H]1CN(c2cccc3c2CN(c2ccc(C(F)(F)F)nc2)CC3)CCN1C(=O)Cn1cnc2cccnc21 [Example 100, 2-Imidazo[4,5-b]pyridin-3-yl-1-{(R)-2-methyl-4-[2-(6-trifluoromethyl-pyridin-3-yl)-1,2,3,4-tetrahydro-isoquinolin-8-yl]-piperazin-1-yl}-ethanone]	1.25
C[C@@H]1CN(c2cccc3c2CN(c2ccccc2)CC3)CCN1C(=O)Cn1cnc2cccnc21 [Example 101, 2-Imidazo[4,5-b]pyridin-3-yl-1-[(R)-2-methyl-4-(2-phenyl-1,2,3,4-tetrahydro-isoquinolin-8-yl)-piperazin-1-yl]-ethanone]	14.7
C[C@@H]1CN(c2cccc3c2CN(c2ncccn2)CC3)CCN1C(=O)Cn1cnc2cccnc21 [Example 102, 2-Imidazo[4,5-b]pyridin-3-yl-1-[(R)-2-methyl-4-(2-pyrimidin-2-yl-1,2,3,4-tetrahydro-isoquinolin-8-yl)-piperazin-1-yl]-ethanone]	29.1
C[C@@H]1CN(c2cccc3c2CN(c2ccc(C(F)(F)F)cn2)CC3)CCN1C(=O)Cn1cnc2cccnc21 [Example 103, 2-Imidazo[4,5-b]pyridin-3-yl-1-{(R)-2-methyl-4-[2-(5-trifluoromethyl-pyridin-2-yl)-1,2,3,4-tetrahydro-isoquinolin-8-yl]-piperazin-1-yl}-ethanone]	20.7
C[C@@H]1CN(c2cccc3c2CN(c2ccccn2)CC3)CCN1C(=O)Cn1cnc2cccnc21 [Example 104, 2-Imidazo[4,5-b]pyridin-3-yl-1-[(R)-2-methyl-4-(2-pyridin-2-yl-1,2,3,4-tetrahydro-isoquinolin-8-yl)-piperazin-1-yl]-ethanone]	9.71
COc1ccc(N2CCc3cccc(N4CCN(C(=O)Cn5cnc6cccnc65)[C@H](C)C4)c3C2)cc1 [Example 105, 2-Imidazo[4,5-b]pyridin-3-yl-1-{(R)-4-[2-(4-methoxy-phenyl)-1,2,3,4-tetrahydro-isoquinolin-8-yl]-2-methyl-piperazin-1-yl}-ethanone]	20.3
C[C@@H]1CN(c2cccc3c2CN(c2cncnc2)CC3)CCN1C(=O)Cn1cnc2cccnc21 [Example 106, 2-Imidazo[4,5-b]pyridin-3-yl-1-[(R)-2-methyl-4-(2-pyrimidin-5-yl-1,2,3,4-tetrahydro-isoquinolin-8-yl)-piperazin-1-yl]-ethanone]	5.46
C[C@@H]1CN(c2cccc3c2CN(c2cnc(C(F)(F)F)nc2)CC3)CCN1C(=O)Cn1cnc2cccnc21 [Example 107, 2-Imidazo[4,5-b]pyridin-3-yl-1-{(R)-2-methyl-4-[2-(2-trifluoromethyl-pyrimidin-5-yl)-1,2,3,4-tetrahydro-isoquinolin-8-yl]-piperazin-1-yl}-ethanone]	1.74
Cc1cnc(N2CCc3cccc(N4CCN(C(=O)Cn5cnc6cccnc65)[C@H](C)C4)c3C2)nc1 [Example 108, 2-Imidazo[4,5-b]pyridin-3-yl-1-{(R)-2-methyl-4-[2-(5-methyl-pyrimidin-2-yl)-1,2,3,4-tetrahydro-isoquinolin-8-yl]-piperazin-1-yl}-ethanone]	32.6
Cc1ncc(N2CCc3cccc(N4CCN(C(=O)Cn5cnc6cccnc65)[C@H](C)C4)c3C2)cn1 [Example 109, 2-Imidazo[4,5-b]pyridin-3-yl-1-{(R)-2-methyl-4-[2-(2-methyl-pyrimidin-5-yl)-1,2,3,4-tetrahydro-isoquinolin-8-yl]-piperazin-1-yl}-ethanone]	12.5
CCCc1ncc(N2CCc3cccc(N4CCN(C(=O)Cn5cnc6cccnc65)[C@H](C)C4)c3C2)cn1 [Example 110, 2-Imidazo[4,5-b]pyridin-3-yl-1-{(R)-2-methyl-4-[2-(2-propyl-pyrimidin-5-yl)-1,2,3,4-tetrahydro-isoquinolin-8-yl]-piperazin-1-yl}-ethanone]	0.85
CC(C)Oc1ncc(N2CCc3cccc(N4CCN(C(=O)Cn5cnc6cccnc65)[C@H](C)C4)c3C2)cn1 [Example 111, 2-Imidazo[4,5-b]pyridin-3-yl-1-{(R)-4-[2-(2-isopropoxy-pyrimidin-5-yl)-1,2,3,4-tetrahydro-isoquinolin-8-yl]-2-methyl-piperazin-1-yl}-ethanone]	4.83
C[C@@H]1CN(c2cccc3c2CN(c2cnc(OCC(F)(F)F)nc2)CC3)CCN1C(=O)Cn1cnc2cccnc21 [Example 112, 2-Imidazo[4,5-b]pyridin-3-yl-1-((R)-2-methyl-4-{2-[2-(2,2,2-trifluoro-ethoxy)-pyrimidin-5-yl]-1,2,3,4-tetrahydro-isoquinolin-8-yl}-piperazin-1-yl)-ethanone]	2.98

Results, then the compound that gave them:

IC50 [nM]	Structure (SMILES)
12.2	C[C@@H]1CN(c2cccc3c2CN(c2nccs2)CC3)CCN1C(=O)Cn1cnc2cccnc21 [Example 113, 2-Imidazo[4,5-b]pyridin-3-yl-1-[(R)-2-methyl-4-(2-thiazol-2-yl-1,2,3,4-tetrahydro-isoquinolin-8-yl)-piperazin-1-yl]-ethanone]
9.53	Cc1csc(N2CCc3cccc(N4CCN(C(=O)Cn5cnc6cccnc65)[C@H](C)C4)c3C2)n1 [Example 114, 2-Imidazo[4,5-b]pyridin-3-yl-1-{(R)-2-methyl-4-[2-(4-methyl-thiazol-2-yl)-1,2,3,4-tetrahydro-isoquinolin-8-yl]-piperazin-1-yl}-ethanone]
13.3	C[C@@H]1CN(c2cccc3c2CN(c2ncc(-c4ccccc4)s2)CC3)CCN1C(=O)Cn1cnc2cccnc21 [Example 115, 2-Imidazo[4,5-b]pyridin-3-yl-1-{(R)-2-methyl-4-[2-(5-phenyl-thiazol-2-yl)-1,2,3,4-tetrahydro-isoquinolin-8-yl]-piperazin-1-yl}-ethanone]
15.1	Cc1nc(N2CCc3cccc(N4CCN(C(=O)Cn5cnc6cccnc65)[C@H](C)C4)c3C2)sc1C [Example 116, 1-{(R)-4-[2-(4,5-Dimethyl-thiazol-2-yl)-1,2,3,4-tetrahydro-isoquinolin-8-yl]-2-methyl-piperazin-1-yl}-2-imidazo[4,5-b]pyridin-3-yl-ethanone]
3.7	C[C@@H]1CN(c2cccc3c2CN(c2nc(C#N)cs2)CC3)CCN1C(=O)Cn1cnc2cccnc21 [Example 117, 2-{8-[(R)-4-(2-Imidazo[4,5-b]pyridin-3-yl-acetyl)-3-methyl-piperazin-1-yl]-3,4-dihydro-1H-isoquinolin-2-yl}-thiazole-4-carbonitrile]
6.49	COc1ncc(N2CCc3cccc(N4CCN(C(=O)Cn5cnc6cccnc65)[C@H](C)C4)c3C2)cn1 [Example 118, 2-Imidazo[4,5-b]pyridin-3-yl-1-{(R)-4-[2-(2-methoxy-pyrimidin-5-yl)-1,2,3,4-tetrahydro-isoquinolin-8-yl]-2-methyl-piperazin-1-yl}-ethanone]
10.9	COc1ccc(N2CCc3cccc(N4CCN(C(=O)Cn5cnc6cccnc65)[C@H](C)C4)c3C2)nn1 [Example 119, 2-Imidazo[4,5-b]pyridin-3-yl-1-{(R)-4-[2-(6-methoxy-pyridazin-3-yl)-1,2,3,4-tetrahydro-isoquinolin-8-yl]-2-methyl-piperazin-1-yl}-ethanone]
